The text below walks through data of paper PMC10850954, “HDAC6/aggresome processing pathway importance for inflammasome formation is context-dependent” (The Journal of Biological Chemistry, 2024).

Each structure is given as a SMILES string.

For experiment [1], the target named is T1, HDAC6 (Homo sapiens, UniProt Q9UBN7).
T1 sequence (Q9UBN7 1-1215): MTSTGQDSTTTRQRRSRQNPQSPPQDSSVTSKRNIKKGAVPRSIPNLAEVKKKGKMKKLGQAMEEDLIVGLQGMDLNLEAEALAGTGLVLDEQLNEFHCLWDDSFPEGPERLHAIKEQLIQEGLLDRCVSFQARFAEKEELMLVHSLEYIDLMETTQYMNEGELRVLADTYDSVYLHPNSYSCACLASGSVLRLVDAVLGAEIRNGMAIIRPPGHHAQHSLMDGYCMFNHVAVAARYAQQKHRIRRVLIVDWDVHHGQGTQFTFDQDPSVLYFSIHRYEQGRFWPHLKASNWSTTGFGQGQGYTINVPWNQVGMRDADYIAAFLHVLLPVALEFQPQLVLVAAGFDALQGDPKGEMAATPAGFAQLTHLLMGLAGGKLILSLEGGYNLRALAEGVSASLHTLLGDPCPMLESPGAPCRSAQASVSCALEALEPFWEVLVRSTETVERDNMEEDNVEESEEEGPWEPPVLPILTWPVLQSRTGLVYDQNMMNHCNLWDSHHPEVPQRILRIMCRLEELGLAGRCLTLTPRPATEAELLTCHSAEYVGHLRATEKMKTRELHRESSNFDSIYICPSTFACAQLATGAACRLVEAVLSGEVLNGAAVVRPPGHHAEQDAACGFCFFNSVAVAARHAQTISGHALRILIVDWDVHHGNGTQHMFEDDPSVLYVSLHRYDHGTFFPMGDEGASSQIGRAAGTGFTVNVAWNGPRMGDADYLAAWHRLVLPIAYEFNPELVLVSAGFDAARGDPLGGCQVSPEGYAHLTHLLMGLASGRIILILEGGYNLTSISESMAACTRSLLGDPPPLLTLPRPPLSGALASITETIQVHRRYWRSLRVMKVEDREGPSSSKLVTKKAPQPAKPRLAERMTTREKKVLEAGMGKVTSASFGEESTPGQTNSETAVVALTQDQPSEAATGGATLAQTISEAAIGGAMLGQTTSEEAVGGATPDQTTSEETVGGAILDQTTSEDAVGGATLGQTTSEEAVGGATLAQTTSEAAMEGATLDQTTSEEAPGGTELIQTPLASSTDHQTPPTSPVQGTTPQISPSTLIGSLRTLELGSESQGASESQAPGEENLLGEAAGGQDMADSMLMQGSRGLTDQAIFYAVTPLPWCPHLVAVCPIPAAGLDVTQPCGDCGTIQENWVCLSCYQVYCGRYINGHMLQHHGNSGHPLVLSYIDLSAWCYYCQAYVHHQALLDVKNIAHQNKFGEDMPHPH
On the set-up: endogenous in cells; method as in PMID 37481141. The note with it: THP-1 cells; cited from earlier work.

Experiment [2] addresses T1, HDAC6. On the set-up: method as in PMID 26471297. The note with it: BMDMs; cited from earlier work.
In another experiment the test system is NLRP3 inflammasome. Briefly: IL-1β release in THP-1 cells after nigericin stimulation. To be noted: dTAG 1 μM. It counts as cell-based, human.
The target in the next experiment is T2, HA-F10-FKBP F36V (Homo sapiens, UniProt P62942, F37V).
T2 construct: expressed in transfected cells; host or cells: THP-1, lentiviral transduction, single-cell clone
Briefly: dTAG-induced degradation of DARPin F10-FKBPF36V in THP-1 cells (immunoblot). The note with it: F10-FKBPF36V THP-1 cells, within 6 h of dTAG addition. It counts as cell-based. On the technique in general: A western blot detects proteins with antibodies after separation by electrophoresis.

T2 sequence (P62942 2-108 F37V limits assumed): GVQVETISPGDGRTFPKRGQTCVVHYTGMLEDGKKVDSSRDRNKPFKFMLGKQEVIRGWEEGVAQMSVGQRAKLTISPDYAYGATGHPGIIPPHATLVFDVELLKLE
T2 sequence (Q96SW2 whole entry, further chain): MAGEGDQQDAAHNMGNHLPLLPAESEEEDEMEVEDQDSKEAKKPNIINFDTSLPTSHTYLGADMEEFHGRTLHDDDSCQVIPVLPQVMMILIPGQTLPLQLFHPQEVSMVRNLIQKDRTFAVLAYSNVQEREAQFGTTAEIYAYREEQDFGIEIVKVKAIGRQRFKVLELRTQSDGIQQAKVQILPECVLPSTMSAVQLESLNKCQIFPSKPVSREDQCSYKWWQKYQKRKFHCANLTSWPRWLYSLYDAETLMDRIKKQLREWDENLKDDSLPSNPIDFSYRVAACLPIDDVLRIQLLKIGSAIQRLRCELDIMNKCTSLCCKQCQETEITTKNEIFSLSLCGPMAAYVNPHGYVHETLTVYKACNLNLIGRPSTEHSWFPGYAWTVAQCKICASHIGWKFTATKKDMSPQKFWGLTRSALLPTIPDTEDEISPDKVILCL
Method for HA-F10-FKBP F36V: B, establishment of a THP-1 F10-FKBP cell line with degradable DARPin F10. Immunoblotting with lysates of THP-1 F10-FKBP cells treated at the indicated concentration with dTAG (for 6 h). […] The membrane was probed with antibodies against actin as loading control and F10 (HA-F10-FKBP ^F36V, detected with anti-HA).
The membrane was blocked with 5% milk-TBS, and then incubated with primary antibodies overnight at 4 °C. The signal was developed with HRP-conjugated secondary antibodies and Amersham ECL Western Blotting Detection Reagent (Cytiva#RPN2106).
Method for NLRP3 inflammasome: B, establishment of a THP-1 F10-FKBP cell line with degradable DARPin F10. Immunoblotting with lysates of THP-1 F10-FKBP cells treated at the indicated concentration with dTAG (for 6 h). […] The membrane was probed with antibodies against actin as loading control and F10 (HA-F10-FKBP ^F36V, detected with anti-HA). C, IL-1β release under various treatments in THP-1 F10-FKBP cells at 3 h post-nigericin stimulation. Cells were treated as indicated in the scheme at the top. […] One-way ANOVA test was applied for statistical analysis. ∗∗∗∗p <0.0001. […] D, IL-1β release from 0 h to 3.5 h after nigericin treatment in THP-1 or THP-1-F10-FKBP cells. Experimental set-up was as in (B) and IL-1β concentration was monitored at timepoint 0, 0.5, 1.5, and 3.5 h post nigericin treatment. Two-way ANOVA tests were applied, and comparison was performed within each timepoint between with and without dTAG group. ∗∗p< 0.01. Experimental setup as in (C).
Human IL-1β and IL-18 were determined with Cisbio HTRF Cisbio Human IL1β (#62HIL1BPET) and Human IL18 (#62HIL18PEG) protocols. All the data were from 3 or 4 independent biological replicates.
For BMDM cells, 1.5 × 10^6 cells per well were seeded in six-well plates. After priming with 1 μg/ml LPS (Invivogen #tlrl-b5lps), cells were challenged with 200 μg/ml MSU crystals (Invivogen #tlrl-msu-25) for 6 h or 20 μM nigericin (Sigma-Aldrich #N7143-5MG) for 30 min. […]

As for `CN1CCc2c(c3ccccc3n2Cc2ccc(C(=O)NO)cc2)C1` [Tubastatin A], the IL-1β release entry at HDAC6 [1] is on record as “reduced IL-1β release”. On HDAC6 [2], the mIL-1β level entry is “did not impact the mIL-1β level”.
On to `CC[C@H](C(=O)N1CCCC[C@H]1C(=O)O[C@H](CCc1ccc(OC)c(OC)c1)c1ccccc1OCC(=O)NCCCCCCOc1cccc2c1C(=O)N(C1CCC(=O)NC1=O)C2=O)c1cc(OC)c(OC)c(OC)c1` (some centres unmarked) [dTAG], for which the IL-1β release entry in the experiment with NLRP3 inflammasome (F10-FKBPF36V THP-1 cells, PMA 0.5 μM, nigericin 15 μM, compared to WT THP-1) is “partial, but significant, recovery”; in the experiment on NLRP3 inflammasome (parental WT THP-1, PMA 0.5 μM 3 h, nigericin 15 μM 3 h, MCC950 10 μM), “comparable”. In addition, on HA-F10-FKBP F36V, the “degradation of DARPin F10” value is reported as “efficiently degraded”.
